Measurements as given in the OPERA property sets (Mansouri et al. 2018).

Work on `Clc1ccc(-c2ccc(Cl)cc2)cc1` yielded a logP of 5.23.
With `Cn1c(S)nnc(-c2ccc(OC(F)(F)F)c(Cl)c2)c1=O` the logP was 3.61.
Compound `Cc1cc(OCC(=O)O)ccc1S(C)(=O)=O` has a logP of 0.54.
For `FC(F)(F)c1nc2c(Cl)c(Cl)c(Cl)cc2[nH]1`, the logP was 3.87.
In the case of `COCCn1ccc(=O)c(O)c1C`, the logP is reported as -0.41.
Compound `CC(C)(C)C(COc1ccc(Br)cc1)OC(=S)n1ccnc1` (stereo not given) has a logP of 5.11.
With `CCCCNC(=O)CCn1ccc(=O)c(O)c1C` the logP was -0.1.
In the case of `O=C1C=CC(=O)c2c(O)ccc(O)c21`, the logP is reported as 1.79.
`NC(=O)Cc1ccc(C(=O)O)cc1` gave a logP of 0.3.
Compound `CCCOC(=O)n1c(NC(=O)OC)nc2cc(C(=O)c3ccccc3)ccc21` has a logP of 3.43.
Compound `CCc1c(C)nc2cccc(C)n2c1=O` has a logP of 1.86.
Compound `COC(=O)c1cnc2n(c1=O)C(C)CCC2` (stereo not given) has a logP of 0.16.
`Nc1ccc(S(=O)(=O)c2c(O)cc(O)cc2O)cc1` showed a logP of 1.53.
Work on `CC(=O)CC(c1ccc([N+](=O)[O-])cc1)c1c(O)c2ccccc2oc1=O` (stereo not given) yielded a logP of 1.98.
Compound `O=c1[nH]c(=O)n(Cc2ccc(Cl)cc2)cc1F` has a logP of 1.64.
In the case of `NC(=O)c1cc2ccccc2[nH]1`, the logP is reported as 1.61.
With `CCCCCO` the logP was 1.51.
In the case of `ClC(Br)Br`, the logP is reported as 2.16.
Work on `CCOP(=O)(OCC)SCS(=O)C(C)(C)C` (stereo not given) yielded a logP of 2.66.
In the case of `CCOCCOCCOP(=O)(N1CC1)N1CC1`, the logP is reported as 0.1.
In the case of `C[C@H](CN1CCOCC1)C(C(=O)N1CCCC1)(c1ccccc1)c1ccccc1`, the logP is reported as 3.61.
Compound `NCc1ccccc1Sc1ccccc1CO` has a logP of 2.39.
Work on `Cc1ccc(C(=O)CCN2CCCCC2)cc1` yielded a logP of 3.55.
Compound `CC(C)N(CCC(CCN1CCCCC1)(C(N)=O)c1ccccc1Cl)C(C)C` (stereo not given) has a logP of 4.78.
With `CCc1ccc(OCC(OC(=S)n2ccnc2)C(C)(C)C)cc1` (stereo not given) the logP was 5.09.
For `COC(=O)NC1=NCC(c2ccc(C=O)cc2)N1C` (stereo not given), the logP was 0.74.
For `COCC(=O)Cn1ccnc1[N+](=O)[O-]`, the logP was -0.26.
With `C=CCC(CC=C)(C(=O)NC(N)=O)C(=O)OC` the logP was 1.37.
For `CC(C)(C)C(COc1ccc(Cl)cc1)OC(=O)n1ccnc1` (stereo not given), the logP was 4.19.
Work on `c1cc(CN2CCCCC2)cc(OCCCNc2nc3ccccc3s2)c1` yielded a logP of 5.41.
Compound `C[N+](C)(C)CC1CSCO1.[I-]` (stereo not given) has a logP of -2.7.
With `CC(C)(C)C(COc1ccc(F)cc1)OC(=O)n1ccnc1` (stereo not given) the logP was 3.68.
For `CCCCC(CC)C(=O)N1c2ccc(C)cc2C2CN(C)CCC21` (stereo not given), the logP was 4.14.
With `CC(=O)Nc1cc(C(C)(C)C)c(O)cc1C` the logP was 2.18.
Compound `CCCCCCn1ccc(=O)c(O)c1C` has a logP of 1.9.
Work on `Nc1nc(=O)n(C2OC(CO)CC2F)cc1F` (stereo not given) yielded a logP of -0.92.
`NS(=O)(=O)c1cc2c(cc1Cl)NC(C(F)(F)F)NS2(=O)=O` (stereo not given) gave a logP of 0.49.
With `CC(=O)OCC1=C(C(=O)O)N2C(=O)C(NC(=O)Cc3cc4ccccc4s3)C2SC1` (stereo not given) the logP was 1.68.
Work on `NC(=S)NNC(=O)c1ccc2c(c1)OCO2` yielded a logP of 0.21.
`CNC(=C[N+](=O)[O-])NCCSCc1nc[nH]c1C` showed a logP of -0.4.
Work on `CN(C)C=C1OC(=O)C(C#N)=C1c1ccccc1` yielded a logP of 1.07.
Work on `CC(C)(C)NCC(O)COc1cccc2c1C[C@H](O)[C@H](O)C2` (stereo not given in full) yielded a logP of 0.81.
For `CCNC(=O)NCCCn1nc(-c2ccccc2)ccc1=O`, the logP was 1.68.
`CCC(C(=O)OC(C)c1ccccc1)C(CO)Cc1cncn1C` (stereo not given) showed a logP of 2.23.
`CC(=O)Nc1ccc2c(c1)S(=O)(=O)c1ccc(C)cc1C2=O` showed a logP of 2.76.
With `CC(C)c1ccc(C2C(=O)c3ccccc3C2=O)cc1` the logP was 4.43.
With `O=C1NC(=O)C(Cc2ccccc2)(Cc2ccccc2)N1` the logP was 2.46.
For `O=C(O)c1cc(O)nc(O)n1`, the logP was -0.83.
For `CC(C(=O)O)N(C(=O)c1ccccc1)c1ccc(F)c(Cl)c1` (stereo not given), the logP was 2.9.
`O=c1[nH]c(=S)ccn1[C@H]1CC[C@@H](CO)O1` gave a logP of -0.21.
`CCn1cc(C(=O)OCOC(C)=O)c(=O)c2ccc(C)nc21` showed a logP of 1.21.
For `CCOC(=O)c1ccc(OCC(OC(=O)n2ccnc2)C(C)(C)C)cc1` (stereo not given), the logP was 4.12.
In the case of `CCCCCn1ccc(=O)c(O)c1C`, the logP is reported as 1.24.
In the case of `OC[C@@H](O)[C@H]1O[C@@H]2O[C@H](C(Cl)(Cl)Cl)O[C@@H]2[C@H]1O`, the logP is reported as 1.02.
Work on `COc1ccc(C(O)C(=O)O)cc1` (stereo not given) yielded a logP of 0.63.
